Source: PubChem BioAssay AID256 (DTP/NCI, 2004)
Where “and” joins values, the source holds several entries; their conditions need not be identical. Identical values can stand only once. Inconclusive results and toxic doses are left out. The calls were made as follows: active = survival T/C of 150% or more; inactive = T/C below 125% in these data.

System: CD2F1 mice, L1210 leukemia ip, survival T/C
Assay: NCI In Vivo Anticancer Drug Screen. Data for tumor model L1210 Leukemia (intraperitoneal) in CD2F1 (CDF1) mice
Details: higher = longer survival
In short: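 Ratio T/C, where T is the treated-group value and C the vehicle-dosed control value, from mice implanted with a transplantable tumor.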

[1] = endpoint: mean survival time, dose: 100.0 mg/kg/injection, schedule: Q04DX003 (ip), vehicle: saline with Tween-80
[2] = endpoint: mean survival time, dose: 200.0 mg/kg/injection, schedule: Q04DX003 (ip), vehicle: saline with Tween-80
[3] = endpoint: mean survival time, dose: 400.0 mg/kg/injection, schedule: Q04DX003 (ip), vehicle: saline with Tween-80

Measured: T/C

CC[N](CC)[Ge]([CH2]C)[CH2]C.CC[N](CC)[Ge]([CH2]C)[CH2]C
inactive: endpoint: mean survival time, dose: 3.12 mg/kg/injection, schedule: Q01DX009 (ip), vehicle: saline 98 % of control | endpoint: mean survival time, dose: 3.12 mg/kg/injection, schedule: Q01DX009 (ip), vehicle: suspension in saline 98 % of control | endpoint: mean survival time, dose: 6.25 mg/kg/injection, schedule: Q01DX009 (ip), vehicle: saline 98 % of control | endpoint: mean survival time, dose: 6.25 mg/kg/injection, schedule: Q01DX009 (ip), vehicle: suspension in saline 114 % of control | endpoint: mean survival time, dose: 12.5 mg/kg/injection, schedule: Q01DX009 (ip), vehicle: saline 98 % of control | endpoint: mean survival time, dose: 12.5 mg/kg/injection, schedule: Q01DX009 (ip), vehicle: suspension in saline 106 % of control | endpoint: mean survival time, dose: 25.0 mg/kg/injection, schedule: Q01DX009 (ip), vehicle: saline 101 % of control | endpoint: mean survival time, dose: 25.0 mg/kg/injection, schedule: Q01DX009 (ip), vehicle: suspension in saline 97 % of control | endpoint: mean survival time, dose: 50.0 mg/kg/injection, schedule: Q01DX009 (ip), vehicle: saline 110 % of control | endpoint: mean survival time, dose: 50.0 mg/kg/injection, schedule: Q01DX009 (ip), vehicle: suspension in saline 101 % of control

COC(=O)C1C2CCC(C2)C1C(=O)OC (stereo not drawn)
inactive: [1] 97 % of control | [2] 101 % of control | [3] 93 % of control

NC(=S)c1ncnc2c1ncn2C1OC(CO)C(O)C1O (stereo not drawn)
inactive: endpoint: median survival time, dose: 8.75 mg/kg/injection, schedule: Q01DX005 (ip), vehicle: water 103 % of control | endpoint: median survival time, dose: 17.5 mg/kg/injection, schedule: Q01DX005 (ip), vehicle: water 103 % of control and 107 % of control | endpoint: median survival time, dose: 35.0 mg/kg/injection, schedule: Q01DX005 (ip), vehicle: water 120 % of control and 111 % of control | endpoint: median survival time, dose: 70.0 mg/kg/injection, schedule: Q01DX005 (ip), vehicle: water 122 % of control and 124 % of control

CCC(=O)c1ccc(OC(C)=O)c(OC(C)=O)c1
inactive: endpoint: mean survival time, dose: 100.0 mg/kg/injection, schedule: Q01DX009 (ip), vehicle: saline 96 % of control | endpoint: mean survival time, dose: 200.0 mg/kg/injection, schedule: Q01DX009 (ip), vehicle: saline 96 % of control | endpoint: mean survival time, dose: 400.0 mg/kg/injection, schedule: Q01DX009 (ip), vehicle: saline 96 % of control

Nc1ccc2cc(S(=O)(=O)O)cc(O)c2c1
inactive: [1] 98 % of control | [2] 102 % of control | [3] 98 % of control
